The record followed here is US8735620B2, “Processes for preparing (E)-styrylbenzylsulfone compounds and uses thereof for treating proliferative disorders” (priority 2008, dated 2014).

Holding throughout (assay type): cell-based
Data set [1] concerns DLD1 (human colorectal tumor cell line). The data set can be described thus: Cytotoxicity assay (trypan blue exclusion, 96 h), DLD1. Conditions: DLD1, 96 h treatment; read-out: DLD1 IC50.
Description: (§1) Tissue Culture and Reagents: Paclitaxel was purchased from Sigma. Cell lines were purchased from ATCC. Cell lines were routinely grown in DMEM or RPM1 (CellGro) supplemented with 10% fetal bovine serum (Atlas) and 1 unit/mL penicillin-streptomycin (Gibco).
Data set [2] concerns BT20, DU145, H157 and DLD1 cell lines. The data set can be described thus: In vitro cytotoxicity, four human tumor cell lines (SAR discussion). Particulars: for activity in cell-killing assays: at the highest concentration (20 μM) tested. As to the method:
A number of tumor cell lines were tested using a dose response end point assay system. The cells were grown in either DMEM or RPMI supplemented with 10% fetal bovine serum and 1 unit/mL Penicillin-Streptomycin solution. The tumor cells were plated into 6 well dishes at a cell density of 1.0×10^5 cells/mL/well and compounds were added 24 h later at various concentrations. Cell counts were determined from duplicate wells after 96 h of treatment. The total number of viable cells was determined by trypan blue exclusion.
Following the synthesis of this group of compounds, their in vitro cytotoxicity was assessed using four different human tumor cell lines derived from human breast (BT20), prostate (DU145), lung (H157) and colorectal (DLD1) cancers. […] In a majority of the compounds described here, a methoxy group was kept constant at the 4th position on the aromatic ring of the benzyl moiety.

Data set [3] deals with H157 (human lung tumor cell line). The data set can be described thus: Cytotoxicity assay (trypan blue exclusion, 96 h), H157. Particulars: H157, 96 h treatment; read-out: H157 IC50.
Data set [4] deals with BT20 (human breast tumor cell line). The data set can be described thus: Cytotoxicity assay (trypan blue exclusion, 96 h), BT20. Particulars: BT20, 96 h treatment.
Description: as §1
In data set [5] the test system is DU145 (human prostate tumor cell line). The data set can be described thus: Cytotoxicity assay (trypan blue exclusion, 96 h), DU145. Conditions: DU145, 96 h treatment; read-out: DU145 IC50.
Description: as §1

Like-named read-outs stand apart in the source and are kept apart here. Bounds are passed on as bounds.

Broadly, the IC50 is the midpoint of a concentration-inhibition curve. For the molecule `COc1ccc(CS(=O)(=O)/C=C/c2cc(C)cc(C)c2)cc1` [6k, (E)-3,5-Dimethylstyryl-4-Methoxybenzyl sulfone], the IC50 in data set [1], in data set [3], in data set [4] and in data set [5] was over 20 µM in each case. The “cytotoxic activity, SAR statement” value in data set [2] is given as “low level of cytotoxicity”.
For `COc1ccc(CS(=O)(=O)/C=C/c2cc(OC)c(OC)cc2OC)cc1` [6q, (E)-2,4,5-Trimethoxystyryl-4-Methoxybenzyl sulfone], the IC50 in data set [1], in data set [3], in data set [4] and in data set [5] was over 20 µM in each case. The “activity in cell-killing assays” value in data set [2] is “totally inactive”.
As to `COc1cc(OC)c(/C=C/S(=O)(=O)Cc2ccc(C#N)cc2)c(OC)c1` [6ag, (E)-2,4,6-trimethoxystyryl-4-Cyanobenzyl sulfone], the “cytotoxic activity, SAR statement” value in data set [2] is “substantially lost activity”. The IC50 was found to be 12.5 µM in data set [4] and 7.5 µM in data set [5].
Regarding `COc1ccc(CS(=O)(=O)/C=C/c2ccc(C)cc2C)cc1` [6h, (E)-2,4-Dimethylstyryl-4-Methoxybenzyl sulfone], in data set [2], the “cytotoxic activity, SAR statement” value was “low level of cytotoxicity”. Moreover, in data set [5], the half-inhibitory concentration (IC50) stood at 12 µM.
On to `COc1ccc(CS(=O)(=O)/C=C/c2cc(OC)cc(OC)c2)cc1` [6p, (E)-3,5-Dimethoxystyryl-4-Methoxybenzyl sulfone], for which the IC50 in data set [1], in data set [3], in data set [4] and in data set [5] was over 20 µM throughout.
For `COc1ccc(CS(=O)(=O)/C=C/c2ccc(N)cc2)cc1` [6e, (E)-4-Aminostyryl-4-Methoxybenzyl sulfone], the 50% inhibitory concentration (IC50) in data set [1], in data set [3], in data set [4] and in data set [5] was over 20 µM throughout. In addition, in data set [2], the “cytotoxic activity, SAR statement” value is on record as “gradually decreased the activity”.
Consider `COc1cc(OC)c(/C=C/S(=O)(=O)Cc2cc(OC)c(OC)c(OC)c2)c(OC)c1` [6ac, (E)-2,4,6-trimethoxystyryl-3,4,5-Trimethoxybenzyl sulfone], for which the IC50 in data set [1], in data set [3], in data set [4] and in data set [5] was over 20 µM throughout.
For the molecule `COc1ccc(CS(=O)(=O)/C=C/c2cc(OC)c(OC)c(OC)c2)cc1O` [6y, (E)-3,4,5-Trimethoxystyryl-3-Hydroxy-4-Methoxybenzyl Sulfone], the IC50 in data set [1] was 10 µM; in data set [3], 10 µM; in data set [4] it was 7.5 µM; in data set [5], 5 µM.
As for `COc1ccc(CS(=O)(=O)/C=C/c2cc(OC)c(OC)c(OC)c2)cc1` [6t, (E)-3,4,5-Trimethoxystyryl-4-Methoxybenzyl sulfone], the IC50 in data set [1], in data set [3], in data set [4] and in data set [5] was over 20 µM throughout. The “activity in cell-killing assays” value in data set [2] was “totally inactive”.
On to `COc1ccc(CS(=O)(=O)/C=C/c2ccc(OC)cc2OC)cc1` [6n, (E)-2,4-Dimethoxystyryl-4-Methoxybenzyl sulfone], for which the IC50 in data set [1], in data set [3], in data set [4] and in data set [5] was over 20 µM each time.
As for `COc1ccc(CS(=O)(=O)/C=C/c2ccc(Cl)cc2)cc1` [6c, (E)-4-Chlorostyryl-4-Methoxybenzyl sulfone], the IC50 in data set [1] turned out to be 3 µM; in data set [3], 3.5 µM; in data set [4] it was 2 µM; in data set [5], 2.5 µM. In addition, the “cytotoxic activity, SAR statement” value in data set [2] is “gradually decreased the activity”.
With `COc1ccc(CS(=O)(=O)/C=C/c2ccc([N+](=O)[O-])cc2)cc1` [6d, (E)-4-Nitrostyryl-4-Methoxybenzyl sulfone], the IC50 is 5 µM in data set [1], 7.5 µM in data set [3], 5 µM in data set [4] and 7.5 µM in data set [5]. Moreover, the “cytotoxic activity, SAR statement” value in data set [2] (four human tumor cell lines) is recorded as “gradually decreased the activity”.
Take `COc1ccc(CS(=O)(=O)/C=C/c2ccc(F)cc2Cl)cc1` [6g, (E)-2-Chloro-4-fluorostyryl-4-Methoxybenzyl sulfone]: the half-inhibitory concentration (IC50) was found to be 4 µM in data set [1], 2.5 µM in data set [3], 2.5 µM in data set [4] and 2 µM in data set [5]. For the same molecule, the “cytotoxic activity, SAR statement” value in data set [2] is given as “retained cytotoxic activity”.
On to `COc1ccc(CS(=O)(=O)/C=C/c2ccc(OC)c(OC)c2OC)cc1` [6r, (E)-2,3,4-Trimethoxystyryl-4-Methoxybenzyl sulfone], for which the IC50 in data set [1], in data set [3], in data set [4] and in data set [5] was over 20 µM in each case. For the same molecule, in data set [2], the “activity in cell-killing assays” value is “totally inactive”.
As to `COc1cc(OC)c(/C=C/S(=O)(=O)Cc2ccc(Cl)cc2)c(OC)c1` [6ae, (E)-2,4,6-trimethoxystyryl-4-chlorobenzyl sulfone], in data set [2], the “cytotoxic activity, SAR statement” value was “substantially lost activity”. In addition, the IC50 in data set [4] is 10 µM; in data set [5] it was 7.5 µM.
For `COc1ccc(CS(=O)(=O)/C=C/c2c(C)cccc2C)cc1` [6l, (E)-2,6-Dimethylstyryl-4-Methoxybenzyl sulfone], the IC50 in data set [1], in data set [3], in data set [4] and in data set [5] was over 20 µM in each case. Besides, the “cytotoxic activity, SAR statement” value in data set [2] is reported as “low level of cytotoxicity”.
`COc1ccc(/C=C/S(=O)(=O)Cc2ccc(OC)cc2)cc1` [6a, (E)-4-Methoxystyryl-4-Methoxybenzyl sulfone]: the IC50 in data set [1], in data set [3], in data set [4] and in data set [5] was over 20 µM each time. Moreover, in data set [2], the “cytotoxic activity, SAR statement” value is recorded as “gradually decreased the activity”.
With `COc1ccc(CS(=O)(=O)/C=C/c2c(OC)cc(O)cc2OC)cc1O` [6z, (E)-2,6-Dimethoxy-4-hydroxystyryl-3-Hydroxy-4-Methoxybenzyl Sulfone], the IC50 in data set [1] stood at 0.5 µM; in data set [3], 0.5 µM; in data set [4], 0.25 µM; in data set [5], 0.5 µM.
For `COc1ccc(CS(=O)(=O)/C=C/c2ccc(F)c(OC)c2)cc1` [6i, (E)-4-Fluoro-3-methoxystyryl-4-Methoxybenzylsulfone], the “cytotoxic activity, SAR statement” value in data set [2] (four human tumor cell lines) is “loss of activity”. Also, the IC50 in data set [5] was 10 µM.
As to `COc1ccc(CS(=O)(=O)/C=C/c2cc(OC)ccc2OC)cc1` [6o, (E)-2,5-Dimethoxystyryl-4-Methoxybenzyl sulfone], the half-inhibitory concentration (IC50) in data set [1], in data set [3], in data set [4] and in data set [5] was over 20 µM each time.
For `COc1ccc(CS(=O)(=O)/C=C/c2c(C)cc(C)cc2C)cc1` [6w, (E)-2,4,6-Trimethylstyryl-4-Methoxybenzyl sulfone], the IC50 in data set [1], in data set [3], in data set [4] and in data set [5] was over 20 µM in each case. The “cytotoxic activity, SAR statement” value in data set [2] is “inactive”.
Turning to `COc1cc(OC)c(/C=C/S(=O)(=O)Cc2ccc(O)cc2)c(OC)c1` [6ai, (E)-2,4,6-trimethoxystyryl-4-Hydroxybenzyl sulfone], the “cytotoxic activity, SAR statement” value in data set [2] (four human tumor cell lines) is “substantially lost activity”. Further, the half-maximal inhibitory concentration (IC50) in data set [5] amounted to 7.5 µM.
Regarding `COc1cc(OC)c(/C=C/S(=O)(=O)Cc2ccc(OC(F)(F)F)cc2)c(OC)c1` [6x, (E)-2,4,6-Trimethoxystyryl-4-Trifluoromethoxybenzyl sulfone], the IC50 in data set [1] was 4 µM; in data set [3] it was 6 µM; in data set [4], 3 µM; in data set [5], 4 µM.
On to `COc1ccc(CS(=O)(=O)/C=C/c2c(OC)cc(O)cc2OC)cc1` [6u, (E)-2,6-Dimethoxy-4-hydroxystyryl-4-Methoxybenzyl sulfone], for which the IC50 in data set [1], in data set [3], in data set [4] and in data set [5] was over 20 µM each time. Besides, in data set [2] (four human tumor cell lines), the “cytotoxic activity, SAR statement” value was “either a reduced level or total loss of activity”.
On to `COc1ccc(CS(=O)(=O)/C=C/c2ccc(OC)c(OC)c2)cc1` [6j, (E)-3,4-Dimethoxystyryl-4-Methoxybenzyl sulfone], for which the IC50 in data set [1], in data set [3], in data set [4] and in data set [5] was over 20 µM in each case.
`COc1cc(OC)c(/C=C/S(=O)(=O)Cc2ccc(C(=O)O)cc2)c(OC)c1` [6ah, (E)-2,4,6-trimethoxystyryl-4-Carboxybenzyl sulfone]: the “cytotoxic activity, SAR statement” value in data set [2] (four human tumor cell lines) is “substantially lost activity”. In addition, the IC50 amounted to 17.5 µM in data set [3] and 10 µM in data set [5].
On to `COc1cc(OC)c(/C=C/S(=O)(=O)Cc2ccc([N+](=O)[O-])cc2)c(OC)c1` [6af, (E)-2,4,6-trimethoxystyryl-4-Nitrobenzyl sulfone], for which, in data set [2] (four human tumor cell lines), the “cytotoxic activity, SAR statement” value is given as “substantially lost activity”.
With `COc1cc(OC)c(/C=C/S(=O)(=O)Cc2ccc(OC)c(OC)c2OC)c(OC)c1` [6ad, (E)-2,4,6-Trimethoxystyryl-2,3,4-Trimethoxybenzyl sulfone], in data set [5], the IC50 was found to be 12.5 µM.
